The values that follow come from publication PMC11555526, “Development of 2-Aminoadenine-Based Proteolysis-Targeting Chimeras (PROTACs) as Novel Potent Degraders of Monopolar Spindle 1 and Aurora Kinases” (ACS Pharmacology & Translational Science, 2024).

Assay [1] concerns the target T1, AURKA (MV4-11^AURKA-HiBiT cells) (Homo sapiens, UniProt O14965).
T1 construct: expressed in transfected cells; host or cells: MV4-11, lentiviral transduction
T1 sequence (O14965 1-403): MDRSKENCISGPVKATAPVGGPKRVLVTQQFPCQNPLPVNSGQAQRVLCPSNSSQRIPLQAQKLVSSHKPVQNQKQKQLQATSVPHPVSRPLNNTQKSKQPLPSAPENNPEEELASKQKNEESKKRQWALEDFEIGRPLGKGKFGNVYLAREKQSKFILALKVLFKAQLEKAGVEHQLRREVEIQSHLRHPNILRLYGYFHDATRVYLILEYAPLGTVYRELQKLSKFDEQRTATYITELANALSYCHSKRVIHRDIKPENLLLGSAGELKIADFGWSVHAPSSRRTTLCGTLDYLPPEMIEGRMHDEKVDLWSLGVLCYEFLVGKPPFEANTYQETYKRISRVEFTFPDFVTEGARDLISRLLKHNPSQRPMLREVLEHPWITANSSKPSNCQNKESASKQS
Briefly: HiBiT assay, AURKA degradation. It counts as cell-based. Also noted: key to Dmax (maximal degradation) AURKA: compounds with degradation less than 15% reported as “inactive”. The settings on record: 6 h treatment, MV4-11^AURKA-HiBiT cells; for DC50: read-out: DC50 (half-maximal degradation concentration) AURKA; for Dmax: read-out: Dmax (maximal degradation) AURKA. The protocol: (§1) The effects of the synthesized compounds on AURKA, AURKB, and TTK mitotic kinases were then assessed in cellular systems. For this, HiBiT cell lines were generated for all three mitotic kinases. A small 11 amino acid peptide fragment of luciferase (HiBiT) was fused to the coding sequence of the proteins and stably transduced in the MV4-11 cell line (MV4-11^AURKA-HiBiT, MV4-11^AURKB-HiBiT, and MV4-11^HiBiT-TTK).
(§2) The stable cell lines MV4-11^AURKA-HiBiT, MV4-11^AURKB-HiBiT, and MV4-11^HiBiT-TTK cells were generated by lentiviral infection. Lentivirus was produced using the respective HiBiT vector, plasmids psPAX2, and pMD2.G in HEK293 cells. The virus supernatant was filtered and MV4-11 cells were doubly infected with the supernatant. The cells were selected after 48 h of infection until the control cells were dead to get the stable cell line.
(§3) The cells stably expressing HiBiT-tagged protein were seeded into 96-well plates and treated with serial dilutions of compounds for the indicated time points. At the end point, the assay was performed using the Nano-Glo HiBiT Lytic Detection System (Promega) according to the manufacturer’s instruction. Luminescence was measured on a GloMax 96 Microplate Luminometer (Promega) or a Tecan Spark Multiplate reader (Tecan). DC50 was calculated using concentrations showing sigmoidal behavior with the dose–response (four parameters) equation in Prism (GraphPad).
(The HiBiT peptide binds its large partner to form an active luciferase.)

Assay [2] has as its target T2, AURKB (MV4-11^AURKB-HiBiT cells) (Homo sapiens, UniProt Q96GD4).
T2 construct: expressed in transfected cells; host or cells: MV4-11, lentiviral transduction (pRRL-PGK vector)
Briefly: HiBiT assay, AURKB degradation. The settings on record: 6 h treatment; for DC50: read-out: DC50 (half-maximal degradation concentration) AURKB; for Dmax: read-out: Dmax (maximal degradation) AURKB. Also noted: key to Dmax (maximal degradation) AURKB: compounds with degradation less than 15% reported as “inactive”. It counts as cell-based. As to the method: as §1, §2, §3

A further assay has as its system MV4-11 cells (naive). Briefly: alamarBlue cell viability assay. It counts as cell-based, human. The following applies: 72 h treatment, MV4-11 cells (naive); for EC50: read-out: EC50 (concentration that decreases cell viability by 50%). As to the method: Finally, to study the effect of the compounds on cancer cell survival, MV4-11 cells were treated with various concentrations of the chimeras and the cell viability was assessed after 72 h. […] As opposed to the parent inhibitor MPS1-IN-3, its derivatives except 40 were not cytotoxic (Figure S7B, Table 5). […] In addition, most of the SF1-based derivatives affected the viability of MV4-11 cells in nanomolar concentrations (Table 5).
For the alamarBlue cell viability assay, cells were seeded in 96-well plates and treated with indicated concentrations of the compounds or vehicle. A few hours before the experimental end point (72 h, unless otherwise stated), the cells were incubated with the alamarBlue reagent. Finally, fluorescence (excitation: 550 nm and emission: 600 nm) or absorbance (570 nm with reference at 600 nm) was measured on a Tecan Spark Multiplate reader (Tecan).

The target in assay [3] is T3, TTK (MV4-11^HiBiT-TTK cells) (Homo sapiens, UniProt P33981).
T3 construct: expressed in transfected cells; host or cells: MV4-11, lentiviral transduction (pRRL-PGK-HiBiT entry vector)
T3 sequence (P33981 1-857): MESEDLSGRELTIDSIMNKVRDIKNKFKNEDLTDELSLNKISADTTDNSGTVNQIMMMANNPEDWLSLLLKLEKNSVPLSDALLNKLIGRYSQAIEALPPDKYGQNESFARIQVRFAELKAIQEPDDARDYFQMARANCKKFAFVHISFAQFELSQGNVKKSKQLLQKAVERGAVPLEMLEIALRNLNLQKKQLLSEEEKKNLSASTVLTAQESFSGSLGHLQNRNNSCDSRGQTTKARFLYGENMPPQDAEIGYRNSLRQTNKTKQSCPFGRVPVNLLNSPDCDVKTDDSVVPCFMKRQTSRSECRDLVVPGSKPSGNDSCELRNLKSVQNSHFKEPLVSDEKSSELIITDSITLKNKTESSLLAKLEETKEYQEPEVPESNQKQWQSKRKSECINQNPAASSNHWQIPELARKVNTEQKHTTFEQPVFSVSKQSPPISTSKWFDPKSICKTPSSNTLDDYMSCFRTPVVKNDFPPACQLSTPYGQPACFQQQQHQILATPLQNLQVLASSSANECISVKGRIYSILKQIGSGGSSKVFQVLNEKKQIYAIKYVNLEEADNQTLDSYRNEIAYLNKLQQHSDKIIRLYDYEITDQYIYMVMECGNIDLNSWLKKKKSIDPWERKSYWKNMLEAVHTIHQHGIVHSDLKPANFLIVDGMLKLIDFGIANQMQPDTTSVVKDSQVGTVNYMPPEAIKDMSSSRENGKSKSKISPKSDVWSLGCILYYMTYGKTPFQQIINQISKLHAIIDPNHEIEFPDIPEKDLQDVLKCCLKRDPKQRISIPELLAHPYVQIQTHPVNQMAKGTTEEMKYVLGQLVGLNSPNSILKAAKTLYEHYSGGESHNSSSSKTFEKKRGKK
Briefly: HiBiT assay, TTK degradation. It counts as cell-based. Also noted: key to Dmax (maximal degradation) TTK: compounds with degradation less than 15% reported as “inactive”. The following applies: 6 h treatment, MV4-11^HiBiT-TTK cells; for DC50: read-out: DC50 (half-maximal degradation concentration) TTK; for Dmax: read-out: Dmax (maximal degradation) TTK. As to the method: as §1, §2, §3

Several values for one entry are separate records, joined by “and”; a condition that tells them apart may be missing. Equal entries are not always repeated. Where two headings read alike, the source gives them in different places.

T2 sequence (Q96GD4 1-345 isoform Q96GD4-5): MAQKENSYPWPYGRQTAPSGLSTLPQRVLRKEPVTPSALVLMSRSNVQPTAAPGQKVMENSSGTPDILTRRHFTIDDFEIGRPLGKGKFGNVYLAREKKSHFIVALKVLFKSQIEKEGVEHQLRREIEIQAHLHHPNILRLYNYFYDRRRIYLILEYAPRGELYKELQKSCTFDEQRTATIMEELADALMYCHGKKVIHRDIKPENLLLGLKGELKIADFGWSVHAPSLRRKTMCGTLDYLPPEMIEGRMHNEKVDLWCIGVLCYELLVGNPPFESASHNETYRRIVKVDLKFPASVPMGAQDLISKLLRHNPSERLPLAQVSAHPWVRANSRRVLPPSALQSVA

As for `COc1cc(N2CCC(OCC(=O)NCCNC(=O)CCCC(=O)Nc3cccc4c3C(=O)N(C3CCC(=O)NC3=O)C4=O)CC2)ccc1Nc1nc(Nc2ccccc2S(=O)(=O)C(C)C)c2nc[nH]c2n1` (stereo not drawn) [Compound 41], in assay [1], the “DC50 (half-maximal degradation concentration) AURKA” value was “– (compounds with degradation less than 25% were not calculated and reported as “–”)”; the “Dmax (maximal degradation) AURKA” value was “inactive”. Moreover, in assay [2], the “DC50 (half-maximal degradation concentration) AURKB” value is “– (compounds with degradation less than 25% were not calculated and reported as “–”)”; the “Dmax (maximal degradation) AURKB” value was “inactive”. For the same molecule, the “EC50 (concentration that decreases cell viability by 50%)” value in the assay on MV4-11 cells (naive) is “— (compounds with decrease of cell viability less than 50% were not calculated and reported as “—”)”. In assay [3], the “DC50 (half-maximal degradation concentration) TTK” value was “– (compounds with degradation less than 25% were not calculated and reported as “–”)”; the “Dmax (maximal degradation) TTK” value is “inactive”.
Consider `Cc1ncsc1-c1ccc(CNC(=O)[C@@H]2C[C@@H](O)CN2C(=O)[C@@H](NC(=O)CCCC(=O)N2CCN(c3ccc(Nc4nc(NC5CCCCC5)c5nc[nH]c5n4)cc3)CC2)C(C)(C)C)cc1` [Compound 43], for which, in assay [1], the “Dmax (maximal degradation) AURKA” value was 55% and 55.60%; the DC50 was 684 nM. For the same molecule, in assay [2], the “Dmax (maximal degradation) AURKB” value is 33.80% and the DC50 is 2280 nM. Besides, the EC50 with MV4-11 cells (naive) turned out to be 584 nM. Also, in assay [3], the “Dmax (maximal degradation) TTK” value is listed as 32.70% and the DC50 came out at 1960 nM.
Regarding `Cc1ncsc1-c1ccc(CNC(=O)[C@@H]2C[C@@H](O)CN2C(=O)[C@@H](NC(=O)CCCC(=O)NCC(=O)N2CCN(c3ccc(Nc4nc(Nc5ccccc5S(=O)(=O)C(C)C)c5nc[nH]c5n4)cc3)CC2)C(C)(C)C)cc1` [Compound 46], in assay [1], the “Dmax (maximal degradation) AURKA” value is 57.90% and the DC50 worked out at 772 nM. For the same molecule, in assay [2], the “Dmax (maximal degradation) AURKB” value was 29.40% and the DC50 is 466 nM. The EC50 with MV4-11 cells (naive) stood at 1980 nM. Further, in assay [3], the “DC50 (half-maximal degradation concentration) TTK” value is “– (compounds with degradation less than 25% were not calculated and reported as “–”)”; the “Dmax (maximal degradation) TTK” value is “inactive”.
As to `Cc1ncsc1-c1ccc(CNC(=O)[C@@H]2C[C@H](O)CN2C(=O)[C@@H](NC(=O)COCCOCC(=O)N2CCN(c3ccc(Nc4nc(Nc5ccccc5S(=O)(=O)C(C)C)c5nc[nH]c5n4)cc3)CC2)C(C)(C)C)cc1` [Compound 51], in assay [1], the “DC50 (half-maximal degradation concentration) AURKA” value is “– (compounds with degradation less than 25% were not calculated and reported as “–”)”; the “Dmax (maximal degradation) AURKA” value is “inactive”. For the same molecule, in assay [2], the “Dmax (maximal degradation) AURKB” value is on record as 44.00% and the DC50 stood at 1160 nM. Besides, the EC50 with MV4-11 cells (naive) was found to be 421 nM. Besides, in assay [3], the “Dmax (maximal degradation) TTK” value is given as 73.95% and the DC50 worked out at 993 nM.
Turning to `Cc1ncsc1-c1ccc(CNC(=O)[C@@H]2C[C@@H](O)CN2C(=O)[C@@H](NC(=O)CCC(=O)NCCNC(=O)CCC(=O)N2CCN(c3ccc(Nc4nc(NC5CCCCC5)c5nc[nH]c5n4)cc3)CC2)C(C)(C)C)cc1` [Compound 55], in assay [1], the “Dmax (maximal degradation) AURKA” value stood at 28.30% and the DC50 is 9840 nM. Further, in assay [2], the “DC50 (half-maximal degradation concentration) AURKB” value is “– (compounds with degradation less than 25% were not calculated and reported as “–”)”; the “Dmax (maximal degradation) AURKB” value is “inactive”. The EC50 in the assay on MV4-11 cells (naive) was found to be 6910 nM. In addition, in assay [3], the “Dmax (maximal degradation) TTK” value turned out to be 28.40% and the DC50 is 5650 nM.
Turning to `Cc1ncsc1-c1ccc(CNC(=O)[C@@H]2C[C@@H](O)CN2C(=O)[C@@H](NC(=O)CCC(=O)NCCCNC(=O)CCC(=O)N2CCN(c3ccc(Nc4nc(NC5CCCCC5)c5nc[nH]c5n4)cc3)CC2)C(C)(C)C)cc1` [Compound 56], in assay [1], the “Dmax (maximal degradation) AURKA” value came to 39.50% and the DC50 amounted to 6500 nM. In addition, in assay [2], the “Dmax (maximal degradation) AURKB” value came out at 29.10% and the DC50 stood at 2560 nM. In the assay on MV4-11 cells (naive), the EC50 was 6820 nM. Also, in assay [3], the “Dmax (maximal degradation) TTK” value is recorded as 34.20% and the DC50 stood at 1890 nM.
Regarding `CC(C)S(=O)(=O)c1ccccc1Nc1nc(Nc2ccc(N3CCNCC3)cc2)nc2[nH]cnc12` [SF1], the figures for the DC50 in assay [1], in assay [2] and in assay [3] were 274 nM, 993 nM and 1270 nM, respectively. Besides, the values for the Dmax in assay [1], in assay [2] and in assay [3] were 61.9%, 70.2% and 88.8%, respectively. Besides, the EC50 in the assay on MV4-11 cells (naive) (Homo sapiens) turned out to be 28 nM.
For the molecule `COc1cc(N2CCNCC2)ccc1Nc1nc(Nc2ccccc2S(=O)(=O)C(C)C)c2nc[nH]c2n1` [SF2], the DC50 was 1930 nM in assay [1], 4860 nM in assay [2] and 1750 nM in assay [3]. Besides, the values for the Dmax in assay [1], in assay [2] and in assay [3] were 40.1%, 40.9% and 29.6%, respectively. Besides, the EC50 in the assay on MV4-11 cells (naive) (Homo sapiens) came to 2060 nM.
On to `c1nc2c(NC3CCCCC3)nc(Nc3ccc(N4CCNCC4)cc3)nc2[nH]1` [azareversine, reference compound], for which the DC50 in assay [1] was 99.5 nM; in assay [2], 79.3 nM; in assay [3] it was 118 nM. The results for the Dmax in assay [1], in assay [2] and in assay [3] were 52.6%, 44.5% and 47.7%, respectively. Further, the EC50 in the assay with MV4-11 cells (naive) (Homo sapiens) is 123 nM.

What is called Dmax is the largest share of the target that was removed.
